Assay in all cases: Test A preemergence
Holding throughout (assay type): in vivo

Assay [1] deals with barnyardgrass (Echinochloa crus-galli). The settings on record: Echinochloa crus-galli, pre-emergence, 240 h; for pest or weed control at 125 g/ha: 125 g ai/ha, preemergence, 0 to 100 scale where 0 is no effect and 100 is complete control, read-out: Barnyardgrass plant response rating; for pest or weed control at 500 g/ha: 500 g ai/ha, Preemergence, visual injury vs untreated controls after approximately 10 d, read-out: Barnyardgrass plant response rating (0 to 100 scale where 0 is no effect and 100 is complete control). Put shortly: (§1)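 Visual injury, scored on a 0–100 scale relative to untreated controls, was recorded about 10 d after application. Treatments were a preemergence soil spray over planted seeds or a postemergence spray on plants at the one- to two-leaf stage, 2 to 10 cm tall, all in loam soil–sand blend in the greenhouse.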

Assay [2] concerns pigweed (Amaranthus retroflexus). The settings on record: Amaranthus retroflexus, pre-emergence, 240 h; for pest or weed control at 125 g/ha: 125 g ai/ha, preemergence, 0 to 100 scale where 0 is no effect and 100 is complete control, read-out: Pigweed plant response rating; for pest or weed control at 500 g/ha: 500 g ai/ha, Preemergence, visual injury vs untreated controls after approximately 10 d, read-out: Pigweed plant response rating (0 to 100 scale where 0 is no effect and 100 is complete control).

A further assay concerns Kochia (Kochia scoparia). As to conditions: Bassia scoparia, pre-emergence, 240 h; for pest or weed control at 125 g/ha: 125 g ai/ha, preemergence, 0 to 100 scale where 0 is no effect and 100 is complete control, read-out: Kochia plant response rating; for pest or weed control at 500 g/ha: 500 g ai/ha, Preemergence, visual injury vs untreated controls after approximately 10 d, read-out: Kochia plant response rating (0 to 100 scale where 0 is no effect and 100 is complete control). In short, it runs like this:
as §1

Assay [3] deals with ragweed (common ragweed, Ambrosia elatior). The settings on record: Ambrosia artemisiifolia, pre-emergence, 240 h; for pest or weed control at 125 g/ha: 125 g ai/ha, preemergence, 0 to 100 scale where 0 is no effect and 100 is complete control, read-out: Ragweed plant response rating; for pest or weed control at 500 g/ha: 500 g ai/ha, Preemergence, visual injury vs untreated controls after approximately 10 d, read-out: Ragweed plant response rating (0 to 100 scale where 0 is no effect and 100 is complete control). Put shortly:
as §1

The subject of assay [4] is ryegrass, Italian (Italian ryegrass, Lolium multiflorum). The settings on record: Lolium multiflorum, pre-emergence, 240 h; for pest or weed control at 125 g/ha: 125 g ai/ha, preemergence, 0 to 100 scale where 0 is no effect and 100 is complete control, read-out: Ryegrass, Italian plant response rating; for pest or weed control at 500 g/ha: 500 g ai/ha, Preemergence, visual injury vs untreated controls after approximately 10 d, read-out: Ryegrass, Italian plant response rating (0 to 100 scale where 0 is no effect and 100 is complete control). Put shortly:
as §1

With `CC(C)(C)c1ccc([C@H]2CNC(=O)[C@@H]2C(=O)Nc2cccc(F)c2F)cc1` [Compound 847], the pest or weed control at 125 g/ha (in assay [1]; in assay [2]; in the assay on Kochia (Kochia scoparia); in assay [3]; in assay [4]) was 0% each time. In addition, the pest or weed control at 500 g/ha in assay [1] amounted to 60%; in assay [2], 0%; with Kochia (Kochia scoparia), 0%; in assay [3], 0%; in assay [4], 0%.

For `COc1cc([C@H]2CN(C)C(=O)[C@@H]2C(=O)Nc2ccccc2SC)cc(C(F)(F)F)c1` [Compound 857], the pest or weed control at 125 g/ha in assay [1] was determined as 90%; in assay [2] it was 60%; in the assay with Kochia (Kochia scoparia), 0%; in assay [3], 0%; in assay [4], 40%. Also, the pest or weed control at 500 g/ha in assay [1] was 90%; in assay [2], 70%; in the assay on Kochia (Kochia scoparia), 30%; in assay [3], 30%; in assay [4] it was 60%.

Consider `COc1cc(C(F)(F)F)ccc1[C@H]1CN(C)C(=O)[C@@H]1C(=O)Nc1ccccc1F` [Compound 858], for which the pest or weed control at 125 g/ha in assay [1] came out at 90%; in assay [2], 20%; in the assay on Kochia (Kochia scoparia) it was 60%; in assay [3], 0%; in assay [4] it was 30%. The pest or weed control at 500 g/ha turned out to be 90% in assay [1]; 50% in assay [2]; 70% with Kochia (Kochia scoparia); 30% in assay [3]; 70% in assay [4].

Turning to `CSc1ccccc1NC(=O)[C@H]1C(=O)N(C)C[C@@H]1c1cccc(OC(F)(F)C(F)F)c1` [Compound 862], the pest or weed control at 125 g/ha turned out to be 90% in assay [1]; 80% in assay [2]; 70% with Kochia (Kochia scoparia); 90% in assay [3]; 0% in assay [4]. In addition, the pest or weed control at 500 g/ha was 100% in assay [1]; 90% in assay [2]; 70% in the assay on Kochia (Kochia scoparia); 100% in assay [3]; 20% in assay [4].

Take `Cc1c(F)cccc1NC(=O)[C@H]1C(=O)N(C)C[C@@H]1c1cc(F)c(F)c(F)c1` [Compound 867]: the pest or weed control at 125 g/ha came to 90% in assay [1]; 0% in assay [2]; 50% in the assay with Kochia (Kochia scoparia); 0% in assay [3]; 60% in assay [4]. Besides, the pest or weed control at 500 g/ha was determined as 90% in assay [1]; 30% in assay [2]; 70% in the assay with Kochia (Kochia scoparia); 30% in assay [3]; 60% in assay [4].

As to `CN1C[C@H](c2cc(F)cc(F)c2)[C@@H](C(=O)Nc2ncc(C(F)(F)F)cc2F)C1=O` [Compound 868], the pest or weed control at 125 g/ha in assay [1] is 30%; in assay [2], 0%; with Kochia (Kochia scoparia), 0%; in assay [3] it was 0%; in assay [4] it was 0%. The pest or weed control at 500 g/ha was found to be 60% in assay [1]; 0% in assay [2]; 0% in the assay on Kochia (Kochia scoparia); 0% in assay [3]; 0% in assay [4].

The values above are taken from patent US12077503B2, “Substituted cyclic amides and their use as herbicides” (FMC CORPORATION, priority 2015, dated 2024).
